The values that follow come from patent US20190021976A1, “COMPOSITION FOR PREVENTING, IMPROVING OR TREATING PHOTOAGING OF SKIN COMPRISING DHPV” (SUNGKWANG MEDICAL FOUNDATION, priority 2016, published 2019).

SMILES strings stand for the structures.

In one series the test system is PFN1. The series is described as follows: Western blot of PFN1 expression in UV-irradiated human skin cells. It counts as cell-based. To be noted: 0.1 J/cm^2 UV, DHPV 0.5, 1 nM, FIG. 2. On the procedure: (§1) First, aging was induced by irradiation with 0.1 J/cm^2 UV on human skin cells (hypodermis and epidermis were separated using HaCaT cell line purchased from ATCC and human body derived Foreskin, and primary cell culture was used). Next, DHPV, a metabolite of cacao, prepared in 1-1 was treated 0.5, 1 nM, respectively, and cells were obtained.
The expression level of PFN1 as a novel aging marker of epidermal cells was confirmed with Western blot by the same method as the above method except using anti-PFN1 (Abcam, ab118984) antibody instead of anti-involucrin (Santacruz, sc28557) antibody and HRP-combined goat anti-mouse IgG (1:3000; sc 2005, SantaCruz) instead of HRP-combined goat anti-rabbit IgG (1:1000; sc 2004, SantaCruz).

Another series has as its system IVL (involucrin). The series is described as follows: Western blot of IVL (involucrin) expression in UV-irradiated human skin cells. It counts as cell-based. The procedure:
as §1
The expression level of IVL (involucrin) which is one of aging markers of epidermal cells was confirmed by Western blot. Cells were degraded using cell dissolution buffer containing protease inhibitor cocktail kit (P3100-005; GenDEPOT, Barker, Tex.), and phosphatase inhibitor (sc-45065; Santa Cruz Biotechnology, Santa Cruz, Calif.) (#9803; Cell SignalingTechnology, Danvers, Mass.). The aliquot containing 25 ug of cell lysates was separated by electrophoresis on SDS-polyacrylamide gel, and then transferred to nitrocellulose membrane (Amersham, Buckinghamshire, UK) for 180 min at 75 V and […] on a transfer buffer (25 mM Tris, 192 mM glycine, 20% [v/v] methanol [pH 8.3]). The membrane was blocked with PBS of 3% (w/v) BSA containing 0.1% (v/v) Tween-20 for 60 min, and then cultured with anti-involucrin (Santacruz, sc28557) antibody. HRP-combined goat anti-rabbit IgG (1:1000; sc 2004, SantaCruz) was used as a secondary antibody. ECL lumi Femto solution A/B (Dogen, Seoul, Korea) was used to develop blots.
(In western blotting, separated proteins are transferred to a membrane and probed.)

A further series has as its system MMP-1. The series is described as follows: MMP-1 real time PCR in UVB-irradiated human derived hypodermis fibroblasts. It counts as cell-based. To be noted: medium containing DHPV for 24 hrs, FIG. 3A. On the procedure:
(§2) First, human derived hypodermis fibroblasts (hypodermis and epidermis were separated using human body derived Foreskin and the primary cell culture was used) were cultured in the DMEM medium containing 10% FBS (fetal bovine serum), and then cultured in serum free media for 24 hrs and UVB was irradiated. Next, cells were cultured in a medium containing serum or a medium containing 1-41M DHPV for 24 hrs, thereby collecting cells.
In order to confirm changes of mRNA expression level of MMP-1, mRNA was obtained using RNAiso Plus (Takara Bio Inc., Shiga, Japan). Next, CDNA was synthesized and prepared using PrimeScript™ 1st Plus (Takara Bio Inc., Shiga, Japan), and real time PCR was conducted using IQ SYBR (Bio-Rad Laboratories). The primer sequences used in conducting PCR were as same as the following Table 1.

The subject of series [1] is Involucrin (IVL) DNA promoter region. The series can be described thus: Methylation specific PCR of IVL promoter in UV-irradiated human skin cells. It counts as cell-based. To be noted: FIG. 4. The source says:
The aging was induced by irradiation with 0.1 J/cm^2 UV on human skin cells (hypodermis and epidermis were separated using HaCaT cell line purchased from ATCC and human body derived Foreskin, and primary cell culture was used). DNA of the cells was extracted using NucleoSin® Tissue Kit (Macherey-Nagel, Düren, Germany). The extracted DNA was quantified using Nano Drop and its quality was confirmed. In the extracted DNA, unmethylated Cytosine residues were converted to Uracil residues by treating Bisulfite using EZ DNA Methylation-Lightning™ Kit (Zymoresearch, CA, USA) for methylation analysis.
Distilled water was added to Bisulfited DNA 100 ng, primer pair (20 pmole) respectively, 1 uL, TaKaRa EpiTaq HS (5 U/μl) 0.25 uL, 10× EpiTaq PCR Buffer (Mg2^+ free) 5 uL, 25 mM MgCl2 5 uL, dNTP Mixture (2.5 mM each) 6 uL to be 50 uL of the final volume, and then after reacting for […] at 98° C., the procedure of 10 sec at 98° C., 1 min at 55° C., and 30 sec at 72° C. as 40 cycles was repeated and reacted. Then, after extending for 5 min at 72° C., the result was analyzed in 2% (w/v) agarose gel.
Methylation of IVL promoter by DHPV and relative methylation tendency were analyzed by methylation specific PCR which can relatively compare methylation or non-methylation of genes according to band intensity on the electrophoresis. […]

For series [2], the system named is HaCaP cell line and hypodermal cells isolated from human derived foreskin. The series is described as follows: Biostability: cell viability (Ez-cytox). It counts as cell-based. Conditions: FIG. 5. The procedure: In order to evaluate DHPV biostability, HaCaP cell line and hypodermal cells isolated from human derived foreskin were inoculated (2×10^4 cell each) and cultured on the 24 well plate and stabilized. Then, the cells were cultured in serum free media for 24 hrs and 48 hrs.

For another series, the system named is AP-1. The series can be described thus: AP-1 luciferase reporter gene assay in UVB-irradiated hypodermis fibroblasts. It counts as cell-based, human. Conditions: DHPV treatment, FIG. 3B. On the procedure: as §2
AP-1 was obtained by inoculating pGF-AP1-mCMV-EF1-Puro vector (System Biosciences, CA) and a package vector, pMD2.0G and psPAX (Addgene Inc, Cambridge, Mass.) to HEK293T cell and in 36 hrs, viral particles were obtained using […] injection filter, in order to measure activity changes by UVB irradiation through luciferase reporter gene assay. Next, it was inoculated to hypodermis fibroblasts, and cells that injection with puromycin (Sigma, MO, […]) was successes were obtained. Then the activity of AP-1 was measured by using luciferase assay kit (Promega, Madison, Wis.) after culturing cells in the same manner with the hypodermal fibroblast culturing method and treating with DHPV.

`O=C1CCC(Cc2ccc(O)c(O)c2)O1` (centres unmarked) [DHPV, 5-(3′,4′-Dihydroxyphenyl)-Γ-valerolactone]: the “expression level of the PFN1 marker” value in the series on PFN1 was “increased in a concentration-dependent manner”. The “concentration exhibiting excellent skin aging-preventing function” value with IVL (involucrin) (based on skin cells) is 1 nM. The “expression level of the IVL marker (amount of UV-increased IVL)” value in the series with IVL (involucrin) (human skin cells, 0.1 J/cm^2 UV, DHPV 0.5, 1 nM, FIG. 2) was “reduced in a concentration-dependent manner”. Further, in the series on MMP-1, the “mRNA expression of MMP-1” value was “recovered similarly to the control group”. The “methylation of Involucrin (IVL) DNA promoter region induced by photoaging” value in series [1] (0.1 J/cm^2 UV, methylation specific PCR) is reported as “inhibited methylation”. In addition, the “intensity of methylation band” value in series [1] (UV treated cells when treating DHPV, electrophoresis) is “decreased”. Also, the “biostability (cell viability)” value in series [2] is recorded as “shown similarly to that of control group”. Also, in the series with AP-1, the “activity of AP-1” value is on record as “recovered similarly to the control group”.
